Among the data in ChEMBL document CHEMBL1795291, “Computer- and structure-based lead design for epigenetic targets” (Bioorg Med Chem, 2011) are IC50 values, retold here.

A word on the IC50: it is the midpoint of a concentration-inhibition curve. A high value points to weaker potency in that assay.

For assay [1], the target named is T1, NAD-dependent protein deacetylase sirtuin-2 (Homo sapiens, UniProt Q8IXJ6).
T1 sequence (Q8IXJ6 whole entry): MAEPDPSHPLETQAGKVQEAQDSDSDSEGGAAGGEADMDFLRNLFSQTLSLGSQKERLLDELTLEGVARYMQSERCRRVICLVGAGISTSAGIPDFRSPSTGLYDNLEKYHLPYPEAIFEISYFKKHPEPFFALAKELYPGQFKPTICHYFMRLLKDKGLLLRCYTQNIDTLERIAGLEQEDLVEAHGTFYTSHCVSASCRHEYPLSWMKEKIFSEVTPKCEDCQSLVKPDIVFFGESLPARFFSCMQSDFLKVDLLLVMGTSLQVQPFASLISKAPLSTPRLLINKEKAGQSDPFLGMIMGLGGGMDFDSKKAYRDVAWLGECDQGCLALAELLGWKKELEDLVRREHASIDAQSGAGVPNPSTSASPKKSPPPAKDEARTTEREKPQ
Description: Inhibition of human Sirt2.

Assay [2] in a line: Inhibition of HDAC by fluorescence assay.
In assay [3] the target is T2, Histone-lysine N-methyltransferase EHMT2 (Homo sapiens, UniProt Q96KQ7).
T2 sequence (Q96KQ7 whole entry): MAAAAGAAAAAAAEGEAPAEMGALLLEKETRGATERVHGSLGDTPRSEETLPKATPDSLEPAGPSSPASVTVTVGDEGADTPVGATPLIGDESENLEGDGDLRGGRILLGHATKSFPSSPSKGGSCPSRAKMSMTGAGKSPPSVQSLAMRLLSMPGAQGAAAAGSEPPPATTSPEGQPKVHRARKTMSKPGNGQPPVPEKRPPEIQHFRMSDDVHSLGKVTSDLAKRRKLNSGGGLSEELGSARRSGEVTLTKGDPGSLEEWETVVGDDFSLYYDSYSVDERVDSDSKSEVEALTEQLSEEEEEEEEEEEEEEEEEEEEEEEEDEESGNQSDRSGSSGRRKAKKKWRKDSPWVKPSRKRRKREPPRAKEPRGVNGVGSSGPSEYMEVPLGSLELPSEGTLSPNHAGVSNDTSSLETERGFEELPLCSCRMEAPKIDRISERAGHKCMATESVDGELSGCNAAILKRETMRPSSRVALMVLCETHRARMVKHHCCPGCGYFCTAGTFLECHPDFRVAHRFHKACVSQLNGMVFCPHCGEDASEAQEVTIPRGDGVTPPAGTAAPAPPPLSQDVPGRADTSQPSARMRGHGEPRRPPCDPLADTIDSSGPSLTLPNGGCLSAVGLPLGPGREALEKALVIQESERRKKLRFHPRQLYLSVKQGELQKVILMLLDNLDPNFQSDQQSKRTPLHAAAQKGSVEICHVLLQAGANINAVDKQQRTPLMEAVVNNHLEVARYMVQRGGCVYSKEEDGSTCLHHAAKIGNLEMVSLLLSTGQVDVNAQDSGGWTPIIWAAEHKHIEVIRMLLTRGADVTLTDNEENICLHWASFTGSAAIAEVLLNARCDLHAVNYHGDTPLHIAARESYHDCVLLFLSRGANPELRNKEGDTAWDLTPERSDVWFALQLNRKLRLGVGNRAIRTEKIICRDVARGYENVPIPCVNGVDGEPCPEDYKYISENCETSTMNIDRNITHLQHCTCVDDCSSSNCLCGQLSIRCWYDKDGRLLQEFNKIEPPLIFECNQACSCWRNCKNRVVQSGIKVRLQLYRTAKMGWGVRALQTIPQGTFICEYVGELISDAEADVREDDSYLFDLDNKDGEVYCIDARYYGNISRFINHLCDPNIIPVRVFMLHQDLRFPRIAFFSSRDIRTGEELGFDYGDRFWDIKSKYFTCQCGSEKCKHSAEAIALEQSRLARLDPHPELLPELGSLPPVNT
Description: Inhibition of lysine methyltransferase G9a.

Take `O=C1NC(=S)NC(=O)C1=Cc1ccc(-c2ccccc2)cc1`: in assay [1], the IC50 amounted to 8.7 µM.

As to `CCc1nnc(NS(=O)(=O)c2ccc(N/C=C3\Sc4ccccc4C3=O)cc2)s1`, in assay [2], the half-maximal inhibitory concentration (IC50) amounted to 4.3 µM.

In turn, `COc1ccc(C(=O)Oc2ccc(CCn3c(NC(=O)c4ccc(C(F)(F)F)cc4)nc4cc(C(=O)O)ccc43)cc2)cc1` displayed a 50% inhibitory concentration (IC50) in assay [3] of 0.106 µM. That is a sub-micromolar value.
